{
  "source": "paper PMC5361186",
  "about": "(Scientific Reports, 2017)",
  "key": {"[1]": {"biological_target": "T1, α-chymotrypsin (Bos taurus, UniProt P00766, DEL14-15/DEL147-148)", "T1 construct": "purchased Sigma-Aldrich (Steinheim, Germany)", "experiment": "Resistance to chymotryptic cleavage", "format": "in vitro ADME, bovine pancreas", "conditions": "peptide 10 μg/ml, 0.1 mol/L TRIS-HCl pH 7.8, urea 120 mg/mL, α-chymotrypsin E:P 1:200, 24 h, 37 °C", "procedure": "Preliminary experiments using a combination of pepsin and trypsin/chymotrypsin (PTC) for enzymatic hydrolysis were performed with the 33-mer. This PTC hydrolysate of the 33-mer was analysed by untargeted LC-MS/MS followed by data evaluation using the MS/MS ions search module of the Mascot software based on the NCBI database (National Library of Medicine, Bethesda, MD, USA). In addition to the original 33-mer, the truncated forms after N-terminal removal of leucine resulting in a 32-mer (m/z 950.0, 4+ and m/z 1266.3, 3+) and pyro-32-mer (m/z 945.7, 4+ and m/z 1260.6, 3+) were identified, but no 30-mer (m/z 889.7, 4+ and m/z 1185.9, 3+) after potential removal of N-terminal LQL. The ratio 33-mer/32-mer/pyro-32-mer was about 12/76/12. To see whether cleavage of the N-terminal leucine could be minimised, only chymotrypsin was used for further experiments. Therefore, the 33-mer peptide was incubated with chymotrypsin using exactly the same conditions as described for the samples to check its resistance towards cleavage, because it contains two potential chymotryptic cleavage sites at positions L1 and L3. […] Full MS/MS scans were also done for the chymotryptic hydrolysates of the albumin/globulin and gliadin fractions obtained from wheat cv. MJO. […] This is consistent with the original report by Shan et al.[4] who only observed pepsin-catalysed cleavage of the N-terminal leucine. Additionally, no analyte loss is expected to take place during sample preparation, which involves the removal of albumins/globulins.\n(§1) First, flours (150–200 mg) were defatted with pentane/ethanol (95/5, v/v; 2 × 2.0 mL)[40]. The gliadin fractions from the different defatted flours were extracted as described above. […] The obtained peptide mixture was dried using a vacuum centrifuge (40 °C, 6 h, 800 Pa), re-dissolved in FA (0.1%, v/v, 500 μL), filtered (0.45 μm) and analysed by targeted LC-MS/MS. […] MJO, which were all analysed by untargeted LC-MS/MS. […]"}, "[2]": {"test_system": "α-chymotrypsin", "experiment": "α-chymotrypsin (E:P ratio of 1:200) in TRIS-HCl-buffer (0.1 mol/L TRIS-HCl, pH 7.8, urea 120 mg/mL)", "conditions": "bovine pancreas, 37 °C, up to 24 h"}, "[3]": {"test_system": "intestinal peptidases", "experiment": "intestinal peptidases", "conditions": "cited from earlier work"}, "[4]": {"test_system": "pepsin and trypsin/chymotrypsin (PTC)", "experiment": "pepsin (in 0.01 mol/L HCl, pH 2.0, E:P ratio of 1:25) followed by trypsin and α-chymotrypsin (in 0.05 mol/L phosphate buffer, pH 6.5, E:P ratio of 1:200)", "conditions": "porcine gastric mucosa (pepsin); bovine pancreas (trypsin, α-chymotrypsin), 37 °C, up to 60 min (pepsin) followed by 120 min (trypsin and α-chymotrypsin)"}, "[5]": {"test_system": "tissue transglutaminase (TG2)", "experiment": "tissue transglutaminase (TG2)", "conditions": "cited from earlier work"}, "[6]": {"test_system": "pepsin", "experiment": "pepsin", "conditions": "cited from earlier work"}, "[7]": {"test_system": "pepsin and trypsin/chymotrypsin (PTC)", "experiment": "Enzymatic hydrolysis of the 33-mer with pepsin and trypsin/chymotrypsin (PTC)", "format": "in vitro ADME", "conditions": "untargeted LC-MS/MS", "procedure": "Preliminary experiments using a combination of pepsin and trypsin/chymotrypsin (PTC) for enzymatic hydrolysis were performed with the 33-mer. This PTC hydrolysate of the 33-mer was analysed by untargeted LC-MS/MS followed by data evaluation using the MS/MS ions search module of the Mascot software based on the NCBI database (National Library of Medicine, Bethesda, MD, USA). In addition to the original 33-mer, the truncated forms after N-terminal removal of leucine resulting in a 32-mer (m/z 950.0, 4+ and m/z 1266.3, 3+) and pyro-32-mer (m/z 945.7, 4+ and m/z 1260.6, 3+) were identified, but no 30-mer (m/z 889.7, 4+ and m/z 1185.9, 3+) after potential removal of N-terminal LQL. The ratio 33-mer/32-mer/pyro-32-mer was about 12/76/12. To see whether cleavage of the N-terminal leucine could be minimised, only chymotrypsin was used for further experiments. […]\nas §1, with “mL)[40].” for “mL)[40]. The gliadin fractions from the different defatted flours were extracted as described above.”"}, "[8]": {"test_system": "intestinal peptidases", "conditions": "5 (Shan et al. 2002); cited from earlier work", "source_text": "All gluten protein fractions, namely the alcohol-soluble prolamins and the insoluble glutelins, contain CD-active epitopes. The prolamin fraction is particularly rich in proline and glutamine and the numerous proline residues lead to a high resistance to complete proteolytic digestion by human gastric, pancreatic, and brushborder enzymes. […] The 33-mer is widely ca ..."}},
  "note": "“And” between values parts separate entries of the source, which are not always exact repeats. Equal values may be shown once. No end group written: not given here.",
  "data": [
    {"substance": "LQLQP*FPQPQLPYPQPQLPYPQPQLPYPQ*PQ*P*F [*33-mer, [13C28]- and [15N4]-labelled 33-mer peptide used as isotopically labelled internal standard]", "values": [
      {"measurement": "stability towards chymotryptic cleavage, looking for *32-mer, pyro-*32-mer and *30-mer", "setting": "[1]; full MS/MS scans", "result": "stable under the conditions applied"}
    ]},
    {"substance": "LQLQPFPQPQLPYPQPQLPYPQPQLPYPQPQPF", "values": [
      {"measurement": "not cleaved", "setting": "[2]", "result": "no detectable amounts of 32-mer, pyro-32-mer or 30-mer, only the intact 33-mer"},
      {"measurement": "not cleaved", "setting": "[3]", "result": "resistant to cleavage by intestinal peptidases"},
      {"measurement": "cleaved bond", "setting": "[4]", "result": "leucine1-Q"},
      {"measurement": "fragment found", "setting": "[4]", "result": "pyro-32-mer"},
      {"measurement": "not cleaved", "setting": "[4]", "result": "no 30-mer identified"},
      {"measurement": "fragment found", "setting": "[5]", "result": "33-mer deamidated at glutamine 72 and 33-mer deamidated at glutamine 65"},
      {"measurement": "cleaved bond", "setting": "[6]", "result": "leucine1-Q"}
    ]},
    {"substance": "LQLQPFPQPQLPYPQPQLPYPQPQLPYPQPQPF [33-mer]", "values": [
      {"measurement": "ratio 33-mer/32-mer/pyro-32-mer in the PTC hydrolysate", "setting": "[7]; pepsin in 0.01 mol/L HCl, pH 2.0, 60 min, 37 °C, E:P 1:25, then trypsin and α-chymotrypsin in 0.05 mol/L phosphate buffer, pH 6.5, 120 min, 37 °C, E:P 1:200, Mascot, preliminary experiments", "result": "about 12/76/12"},
      {"measurement": "30-mer after potential removal of N-terminal LQL in the PTC hydrolysate", "setting": "[7]; same PTC conditions as E1", "result": "no 30-mer"},
      {"measurement": "forms detected after incubation with chymotrypsin, full MS/MS scans of the m/z of 32-mer, pyro-32-mer and 30-mer", "setting": "[1]; full MS/MS scans, target mass ± 1", "result": "only the intact 33-mer"},
      {"measurement": "truncated forms after incubation with chymotrypsin, untargeted LC-MS/MS", "setting": "[1]; untargeted LC-MS/MS", "result": "no truncated forms"},
      {"measurement": "cleavage by intestinal peptidases", "setting": "[8]", "result": "resistant to cleavage by intestinal peptidases"}
    ]}
  ]
}
